# Measured values: patent US9024027B2, “Derivatives of 1-phenyl-2-pyridinyl alkyl alcohols as phosphodiesterase inhibitors” (Chiesi Farmaceutici S.p.A., priority 2011, dated 2015)
# System: LPS-induced TNF-α release in peripheral blood mononuclear cells (PBMCs)
# Assay: In vitro determination of PDE4 inhibitory activity in the PBMCs assay (LPS-induced TNF-α release)
# Type: cell-based
# Conditions: PBMC; human PBMCs, LPS 3 ng/ml, 18 hours; read-out: PDE4 inhibition (IC50, 50% inhibition of LPS-induced TNF-α release)
# Protocol: The assay, which is based on the known inhibitory activity exerted by PDE4 inhibitors on the lipopolyshaccarides (LPS)-induced tumour necrosis factor-alpha (TNF-α release in peripheral blood mononuclear cells (PBMCs), was performed according to a method previously described (Hatzelmann A et al., J. Pharmacol. Exp. Ther., 2001; 297:267-279; and Draheim R et al., J. Pharmacol. Exp. Ther., 2004; 308:555-563, both of which are incorporated herein by reference in their entireties. Cryopreserved human PBMCs, (100 μl/well) were incubated in 96-well plates (10^5 cells/well), for 30 minutes, in the presence or absence (50 microl) of the test compounds whose concentrations ranged from 10^−12 M to 10^−6 M or from 10^−13 M to 10^−7 M. Subsequently, LPS (3 ng/ml) was added. After 18 hours of incubation at 37° C. in a humidified incubator under an atmosphere of 95% air and 5% CO2, culture medium was collected and TNF-α measured by ELISA.
# The results of the tested compounds, representatives of the invention, expressed as mean±95% confidence limits of the molar concentration of the test compound producing 50% inhibition of LPS-induced TNF-α release (IC50) are shown in the following Table: […]
row,SMILES,IC50 [nM]
1,"CS(=O)(=O)N(CCN1CCOCC1)c1cccc2c1ccn2CC(=O)O[C@@H](Cc1c(Cl)c[n+]([O-])cc1Cl)c1ccc(OC(F)F)c(OCC2CC2)c1 [Compound 233, (S)-3,5-dichloro-4-(2-(3-(cyclopropylmethoxy)-4-(difluoromethoxy)phenyl)-2-(2-(4-(N-(2-morpholinoethyl)methylsulfonamido)-1H-indol-1-yl)acetoxy)ethyl)pyridine 1-oxide]",1 to 10
2,"CN1CCN(CCN(c2ccc3c(c2)C(=O)N(CC(=O)O[C@@H](Cc2c(Cl)c[n+]([O-])cc2Cl)c2ccc(OC(F)F)c(OCC4CC4)c2)C3=O)S(C)(=O)=O)CC1 [Compound 213, (S)-3,5-Dichloro-4-(2-(3-(cyclopropylmethoxy)-4-(difluoromethoxy)-phenyl)-2-(2-(5-(N-(2-(4-methylpiperazin-1-yl)ethyl)methylsulfonamido)-1,3-dioxoisoindolin-2-yl)acetoxy)ethyl)pyridine 1-oxide]",< 1
3,"Nc1cccc2c1C(=O)N(CC(=O)O[C@@H](Cc1c(Cl)c[n+]([O-])cc1Cl)c1ccc(OC(F)F)c(OCC3CC3)c1)C2=O [Compound 12, (S)-4-(2-(2-(4-amino-1,3-dioxoisoindolin-2-yl)acetoxy)-2-(3-(cyclopropylmethoxy)-4-(difluoromethoxy)phenyl)ethyl)-3,5-dichloropyridine 1-oxide]",< 1
4,"CS(=O)(=O)Nc1ccc2c(ccn2CC(=O)O[C@@H](Cc2c(Cl)c[n+]([O-])cc2Cl)c2ccc(OC(F)F)c(OCC3CC3)c2)c1 [Compound 76, (S)-3,5-dichloro-4-(2-(3-(cyclopropylmethoxy)-4-(difluoromethoxy)phenyl)-2-(2-(5-(methylsulfonamido)-1H-indol-1-yl)acetoxy)-ethyl)pyridine 1-oxide]",< 1
5,"CS(=O)(=O)N(CCN1CCCCC1)c1ccc2c(c1)C(=O)N(CC(=O)O[C@@H](Cc1c(Cl)c[n+]([O-])cc1Cl)c1ccc(OC(F)F)c(OCC3CC3)c1)C2=O [Compound 189, (S)-3,5-dichloro-4-(2-(3-(cyclopropylmethoxy)-4-(difluoromethoxy)phenyl)-2-(2-(1,3-dioxo-5-(N-(2-(piperidin-1-yl)ethyl)methylsulfonamido)isoindolin-2-yl)acetoxy)ethyl)pyridine 1-oxide]",> 10
6,"COc1cccc2c1C(=O)N(CC(=O)O[C@@H](Cc1c(Cl)c[n+]([O-])cc1Cl)c1ccc(OC(F)F)c(OCC3CC3)c1)C2=O [Compound 68, (S)-3,5-dichloro-4-(2-(3-(cyclopropylmethoxy)-4-(difluoromethoxy)phenyl)-2-(2-(4-methoxy-1,3-dioxoisoindolin-2-yl)acetoxy)-ethyl)pyridine 1-oxide]",< 1
7,"O=C(Cn1ccc2cc(O)ccc21)O[C@@H](Cc1c(Cl)c[n+]([O-])cc1Cl)c1ccc(OC(F)F)c(OCC2CC2)c1 [Compound 42, (S)-3,5-dichloro-4-(2-(3-(cyclopropylmethoxy)-4-(difluoromethoxy)phenyl)-2-(2-(5-hydroxy-1H-indol-1-yl)acetoxy)ethyl)pyridine 1-oxide]",< 1
8,"O=C(Cn1c(=O)c(=O)n(CCN2CCOCC2)c2ccccc21)O[C@@H](Cc1c(Cl)c[n+]([O-])cc1Cl)c1ccc(OC(F)F)c(OCC2CC2)c1 [Compound 37, (S)-3,5-dichloro-4-(2-(3-(cyclopropylmethoxy)-4-(difluoromethoxy)phenyl)-2-(2-(4-(2-morpholinoethyl)-2,3-dioxo-3,4-dihydroquinoxalin-1(2H)-yl)acetoxy)ethyl)pyridine 1-oxide]",< 1
9,"CS(=O)(=O)Nc1ccc2c(c1)C(=O)N(CC(=O)O[C@@H](Cc1c(Cl)c[n+]([O-])cc1Cl)c1ccc(OC(F)F)c(OCC3CC3)c1)C2=O [Compound 167, (S)-3,5-dichloro-4-(2-(3-(cyclopropylmethoxy)-4-(difluoromethoxy)phenyl)-2-(2-(5-(methylsulfonamido)-1,3-dioxoisoindolin-2-yl)acetoxy)ethyl)pyridine 1-oxide]",< 1
10,COc1ccnc(CN(c2ccc3c(c2)C(=O)N(CC(=O)O[C@@H](Cc2c(Cl)c[n+]([O-])cc2Cl)c2ccc(OC(F)F)c(OCC4CC4)c2)C3=O)S(C)(=O)=O)c1 [Compound 194],1 to 10
11,"COc1cc2c(cc1OC)C(=O)N(CC(=O)O[C@@H](Cc1c(Cl)c[n+]([O-])cc1Cl)c1ccc(OC(F)F)c(OCC3CC3)c1)C2=O [Compound 156, (S)-3,5-dichloro-4-(2-(3-(cyclopropylmethoxy)-4-(difluoromethoxy)phenyl)-2-(2-(5,6-dimethoxy-1,3-dioxoisoindolin-2-yl)acetoxy)ethyl)pyridine 1-oxide]",< 1
12,O=C(CN1C(=O)c2cc(Cl)c(Cl)cc2C1=O)O[C@@H](Cc1c(Cl)c[n+]([O-])cc1Cl)c1ccc(OC(F)F)c(OCC2CC2)c1 [Compound 19],< 1
13,O=C(Cn1c(=O)c2ccccc2c(=O)n1CCN1CCOCC1)O[C@@H](Cc1c(Cl)c[n+]([O-])cc1Cl)c1ccc(OC(F)F)c(OCC2CC2)c1 [Compound 40],1 to 10
14,O=C(Cn1cnc2ccccc21)O[C@@H](Cc1c(Cl)c[n+]([O-])cc1Cl)c1ccc(OC(F)F)c(OCC2CC2)c1 [Compound 22],1 to 10
15,O=C(Cn1c(=O)n(CCN2CCOCC2)c(=O)c2ccccc21)O[C@@H](Cc1c(Cl)c[n+]([O-])cc1Cl)c1ccc(OC(F)F)c(OCC2CC2)c1 [Compound 38],< 1
16,"COc1ccc2c(ccn2CC(=O)O[C@@H](Cc2c(Cl)c[n+]([O-])cc2Cl)c2ccc(OC(F)F)c(OCC3CC3)c2)c1 [Compound 45, (S)-3,5-dichloro-4-(2-(3-(cyclopropylmethoxy)-4-(difluoromethoxy)phenyl)-2-(2-(5-methoxy-1H-indol-1-yl)acetoxy)ethyl)pyridine 1-oxide]",< 1
17,"O=C(Cn1ccc2ccccc21)O[C@@H](Cc1c(Cl)c[n+]([O-])cc1Cl)c1ccc(OC(F)F)c(OCC2CC2)c1 [Compound 14, (S)-4-(2-(2-(1H-indol-1-yl)acetoxy)-2-(3-(cyclopropylmethoxy)-4-(difluoromethoxy)phenyl)ethyl)-3,5-dichloropyridine 1-oxide]",< 1
18,CC(C(=O)OC(Cc1c(Cl)c[n+]([O-])cc1Cl)c1ccc(OC(F)F)c(OCC2CC2)c1)N1C(=O)c2ccccc2C1=O (stereo not drawn) [Compound 18],< 1
19,CS(=O)(=O)N(Cc1cccnc1)c1ccc2c(c1)C(=O)N(CC(=O)O[C@@H](Cc1c(Cl)c[n+]([O-])cc1Cl)c1ccc(OC(F)F)c(OCC3CC3)c1)C2=O [Compound 186],< 1
20,Cc1noc(C)c1CN(c1ccc2c(c1)C(=O)N(CC(=O)O[C@@H](Cc1c(Cl)c[n+]([O-])cc1Cl)c1ccc(OC(F)F)c(OCC3CC3)c1)C2=O)S(C)(=O)=O [Compound 191],< 1
21,"CS(=O)(=O)Nc1ccc2c(c1)CCN2CC(=O)O[C@@H](Cc1c(Cl)c[n+]([O-])cc1Cl)c1ccc(OC(F)F)c(OCC2CC2)c1 [Compound 131, (S)-3,5-dichloro-4-(2-(3-(cyclopropylmethoxy)-4-(difluoromethoxy)phenyl)-2-(2-(5-(methylsulfonamido)indolin-1-yl)acetoxy)-ethyl)pyridine 1-oxide]",1 to 10
22,"O=C(CN1C(=O)c2ccccc2S1(=O)=O)O[C@@H](Cc1c(Cl)c[n+]([O-])cc1Cl)c1ccc(OC(F)F)c(OCC2CC2)c1 [Compound 102, (S)-3,5-dichloro-4-(2-(3-(cyclopropylmethoxy)-4-(difluoromethoxy)phenyl)-2-(2-(1,1-dioxido-3-oxobenzo[d]isothiazol-2(3H)-yl)acetoxy)ethyl)pyridine 1-oxide]",< 1
23,"CS(=O)(=O)Nc1ccc2c(c1)CC(=O)N2CC(=O)O[C@@H](Cc1c(Cl)c[n+]([O-])cc1Cl)c1ccc(OC(F)F)c(OCC2CC2)c1 [Compound 112, (S)-3,5-dichloro-4-(2-(3-(cyclopropylmethoxy)-4-(difluoromethoxy)phenyl)-2-(2-(5-(methylsulfonamido)-2-oxoindolin-1-yl)acetoxy)ethyl)pyridine 1-oxide]",< 1
24,"O=C(CN1C(=O)Cc2ccccc2C1=O)O[C@@H](Cc1c(Cl)c[n+]([O-])cc1Cl)c1ccc(OC(F)F)c(OCC2CC2)c1 [Compound 263, (S)-3,5-dichloro-4-(2-(3-(cyclopropylmethoxy)-4-(difluoromethoxy)phenyl)-2-(2-(1,3-dioxo-3,4-dihydroisoquinolin-2(1H)-yl)acetoxy)ethyl)pyridine 1-oxide]",1 to 10
25,"CS(=O)(=O)Nc1ccc2c(c1)C(=O)N(CC(=O)O[C@@H](Cc1c(Cl)c[n+]([O-])cc1Cl)c1ccc(OC(F)F)c(OCC3CC3)c1)C2 [Compound 10, (S)-3,5-dichloro-4-(2-(3-(cyclopropylmethoxy)-4-(difluoromethoxy)phenyl)-2-(2-(6-(methylsulfonamido)-1-oxoisoindolin-2-yl)acetoxy)ethyl)pyridine 1-oxide]",1 to 10
26,O=C(Cn1ccc2cccnc21)O[C@@H](Cc1c(Cl)c[n+]([O-])cc1Cl)c1ccc(OC(F)F)c(OCC2CC2)c1 [Compound 60],1 to 10
27,"CS(=O)(=O)N(CCN1CCOCC1)Cc1ccc2c(c1)C(=O)N(CC(=O)O[C@@H](Cc1c(Cl)c[n+]([O-])cc1Cl)c1ccc(OC(F)F)c(OCC3CC3)c1)C2=O [Compound 258, (S)-3,5-dichloro-4-(2-(3-(cyclopropylmethoxy)-4-(difluoromethoxy)phenyl)-2-(2-(5-((N-(2-morpholinoethyl)methylsulfonamido)methyl)-1,3-dioxoisoindolin-2-yl)acetoxy)ethyl)pyridine 1-oxide]",< 1
